{"source": "patent US10016409B2", "about": "“Method for improving interstitial flow” (priority 2012, dated 2018)", "key": {"dementia patients [1]": {"tested_on": "dementia patients", "assay": "Retrospective clinical survey, MMSE change in dementia patients with first MMSE score less than or equal to 21", "format": "in vivo, human", "description": "Thus, it is not worth referring to these reports. It is assumed that a considerable degree of irreversible neurodegeneration has progressed in dementia patients, and in view of the action mechanism of the interstitial flow-improving agent, a sufficient therapeutic effect of the interstitial flow-improving agent might not be present for dementia patients. Thus, to evaluate the influence of consecutive oral administration of cilostazol on the cognitive function, a survey of consecutive cases (3183 cases in total) for which record of cilostazol administration between 1996 and 2012 exists was conducted, and examination was conducted by using all the cases matching the following conditions. In this study, to eliminate the influence of anti-dementia drugs, patients administered with anti-dementia drugs such as donepezil were removed from the analysis.\n(i) The mini mental state exam (MMSE), which is a typical test of cognitive function, was conducted twice or more with an interval of 6 months or more (in a case where the MMSE was performed three or more times, two examination results of the first examination and the last examination were selected);\n(ii) The first MMSE score was less than or equal to 21;\n(§1) (iii) A case in which cilostazol was administered in a period at least more than a half of an MMSE observation period was selected as a group (hereinafter referred to as a treated group) subjected to consecutive treatment; and\n(iv) A case in which cilostazol was administered in two months or less in an MMSE observation period was selected as a group (hereinafter referred to as an untreated group) not subjected to consecutive treatment.\n(i) The rate of change in MMSE score in each group (calculation method: [last MMSE score−first MMSE score]/MMSE observation period [years]). In comparison between the two groups, statistical analysis was conducted such that the rate difference was obtained by using a chi-square test and other items were obtained by using a t test."}, "dementia patients [2]": {"tested_on": "dementia patients", "assay": "Clinical record analysis, MMSE change in dementia patients (MMSE less than or equal to 21) under donepezil hydrochloride oral administration", "format": "in vivo, human", "conditions": "dementia patients oral-administered with donepezil hydrochloride", "source_text": "Patients subjected to oral administration of donepezil hydrochloride, having an observation period of one or more years before the MMSE test date, and having first MMSE scores less than or equal to 26 were picked up from a clinical record. Among the patients, patients recorded to have been consecutively administered with cilostazol for 6 months or more in the observation period were classified as a donepezil hydrochloride and cilostazol combined use group (69 cases), and patients recorded to have experienced no cilostazol oral administration were classified as a donepezil hydrochloride single use group (87 cases). Cilostazol was oral-administered at a dosage of 50 to 200 mg/day in the morning and evening, and donepezil hydrochloride was administered at a dosage of 5 mg/day once in a day.\nAs a dementia patient group oral-administered with donepezil hydrochloride, patients with MMSE scores less than or equal to 21 were extracted. Then, the donepezil hydrochloride single use group (the single use group) was 51 cases (17 males and 34 females, average age: 78.2 years old) and the donepezil hydrochloride and cilostazol combined use group (the combined use group) was 35 cases (14 males and 21 females, average age: 79.3 years old). The average dosage of cilostazol in the combined use group was 139 mg/day."}, "MCI patients": {"tested_on": "MCI patients", "assay": "Retrospective clinical survey, MMSE change in patients with first MMSE score 22 to 26 (MCI), no anti-dementia drugs", "format": "in vivo, human", "description": "Harmful proteins such as tau protein, α-synuclein protein, amyloid β protein, and ubiquitinated protein, which cause disorders in nerve function, are gradually accumulated in the brain with age. Irrespective of the type of accumulated harmful proteins, mild disorders in cognitive function is observed in an initial stage. However, in this stage, irreversible neuron degeneration in cranial nerve tissues has been seldom observed yet. Thus, activation of the interstitial flow, which is one of major drainage pathways of harmful proteins, might cure mild disorders of cognitive function. To examine this hypothesis, it was evaluated how consecutive oral administration of cilostazol affects cognitive functions of patients having MMSE scores greater than or equal to 22 and less than or equal to 26 and suspected to have mild deterioration of cognitive function.\nA survey was conducted on consecutive cases (3183 cases in total) between 1996 and 2012 whose records of cilostazol administration exist, and examination using all the cases that match the following conditions was carried out. In this examination, to eliminate the influence of anti-dementia drugs, all the patients administered with anti-dementia drugs such as donepezil were removed from the analysis.\n(i) The mini mental state exam (MMSE), which is a typical test of cognitive function, was performed twice or more with an interval of 6 months or more a case where the MMSE was performed three or more times, two examination results of the first examination and the last examination were selected);\n(ii) The first MMSE score was greater than or equal to 22 and less than or equal to 26;\nas §1\n(iv) A case in which cilostazol was administered in two months or less in the MMSE observation period was selected as a group (hereinafter referred to as an untreated group) not subjected to consecutive treatment.\n(i) The rate of change in MMSE scores in each group (calculation method: [last MMSE score−first MMSE score]/MMSE observation period [years]); and\n(ii) The rate of change in scores in each item of the MMSE test in each group (calculation method: [score of last MMSE test item−score of first MMSE test item]/MMSE observation period [years]).\nIn comparison between the two groups, statistical analysis was conducted such that the rate difference was obtained by using a chi-square test and other items were obtained by using a t test."}, "Tg-SwDI mice": {"tested_on": "Tg-SwDI mice", "assay": "Perivascular Aβ deposition by immunohistochemical staining", "format": "in vivo", "conditions": "vs ordinary feed group", "description": "To verify interstitial flow improvement by cilostazol, inhibition of deposition of harmful proteins on the cerebrovascular lymph drainage pathway by cilostazol was examined by using a cerebral amyloid angiopathy model. Totally unlike a drainage system through a specific receptor or antigen-antibody reaction, drainage of harmful proteins through the interstitial flow is a general drainage system irrespective of the type and amount of proteins, and Aβ in these examples is merely an example of intracerebral harmful proteins for which the interstitial flow is improved so that deposition on the cerebrovascular lymph drainage pathway is inhibited.\nAfter 15 months from the start of breeding, with respect to Tg-SwDI mice of a group administered with cilostazol-containing feed for 13.5 months and Tg-SwDI mice of the ordinary feed administered group, the brain was perfusion-fixed by using 4% paraformaldehide, and the extracted brain was dehydrated for one day. Then, a paraffin block of a fixed brain tissue was prepared, and a paraffin block was sliced to 6 microns with a microtome. […] An ImageJ (NIH) was used as image analysis software. Five regions of interest were randomly selected from the frontal lobe and the hippocampus region in a tissue section, and photographed in a field with a magnification of 200. The measured data was analyzed by using a t test."}}, "data": [{"smiles": "O=C1CCc2cc(OCCCCc3nnnn3C3CCCCC3)ccc2N1", "note": "[cilostazol, 6-[4-(1-cyclohexyl-1H-tetrazole-5-yl)butoxy]3,4-dihydrocarbostyril]", "values": [{"measurement": "rate of change in MMSE score", "setting": "dementia patients [1]; dementia treated group (19 cases), first MMSE less than or equal to 21, average±standard error, P value 0.21 vs untreated", "result": "0.5±0.7 /year"}, {"measurement": "therapeutic effects on dementia", "setting": "dementia patients [1]; first MMSE less than or equal to 21, treated vs untreated", "result": "no statistically significant therapeutic effects on dementia were observed"}, {"measurement": "side effects leading to no consecutive cilostazol treatment", "setting": "dementia patients [1]; untreated group of dementia survey", "result": "side effects such as diarrhea and headaches"}, {"measurement": "effectiveness for dementia", "setting": "dementia patients [2]", "result": "no effectiveness for dementia"}, {"measurement": "increase in MMSE scores (treated vs untreated group)", "setting": "MCI patients; MCI patients, as described in Example (4)", "result": "about 4"}, {"measurement": "rate of change in MMSE score", "setting": "MCI patients; MCI treated group (31 cases), first MMSE 22-26, average±standard error, P=0.007 vs untreated", "result": "0.4±0.7", "unit": "per year"}, {"measurement": "rate of change in MMSE item 5 of delayed recall", "setting": "MCI patients; MCI treated group, score change/observation period [years], P=0.004 vs untreated", "result": "0.16±0.13"}, {"measurement": "rate of change in MMSE item 9 of command with sentence", "setting": "MCI patients; MCI treated group, score change/observation period [years], P=0.008 vs untreated", "result": "0.01±0.06"}, {"measurement": "rate of change in MMSE item 11 of visual configuration", "setting": "MCI patients; MCI treated group, score change/observation period [years], P=0.02 vs untreated", "result": "0.03±0.08"}, {"measurement": "rate of change in MMSE item 1 of orientation to time", "setting": "MCI patients; MCI treated group, score change/observation period [years], P=0.03 vs untreated", "result": "−0.13±0.16"}, {"measurement": "side effects leading to no consecutive cilostazol treatment", "setting": "MCI patients; untreated group of MCI survey", "result": "side effects such as diarrhea and headaches"}, {"measurement": "deposition of Aβ on the perivascular site", "setting": "Tg-SwDI mice; cilostazol-containing feed for 8 months from 4 months of age, FIG. 15", "result": "reduced"}, {"measurement": "deposition of Aβ on the perivascular site", "setting": "Tg-SwDI mice; cilostazol-containing feed for 13.5 months from 1.5 months of age, FIG. 16", "result": "reduced"}, {"measurement": "amount of Aβ deposited on a perivascular site", "setting": "Tg-SwDI mice; frontal lobe and hippocampus, FIGS. 13 and 14", "result": "smaller"}]}]}
